Reference: paper PMC3172044 (Biopharmaceutics & drug disposition, 2010)

Tests used:
[1] = cited from earlier work
human liver microsomes [2] = tested on: human liver microsomes
human liver microsomes [3] = test: Chemical inhibition of GLB metabolite formation in human liver microsomes; conditions: GLB 1.25 μM; for effect on the formation of any of the four metabolites (M1, M2b, M4, M5): SUL […], QUI 0.45 μM, TTEPA 20 μM
[4] = cited from earlier work; remark: listed apart in the source
[5] = read-out: apparent Km values for GLB metabolism; cited from earlier work
CYP3A = conditions: cited from earlier work
CYP2C19 = conditions: cited from earlier work
[6] = substrate: COc1ccc(Cl)cc1C(=O)NCCc1ccc(S(=O)(=O)NC(=O)NC2CCCCC2)cc1; test: cells, lysate or membranes named; conditions: substrate depletion, 37.0 °C
[7] = value stated to be within the range
[8] = 1 μM ketoconazole, no inhibitor = 100%
[9] = 4 μM montelukast, no inhibitor = 100%
[10] = other: CYP3A5 supersomes 30 pmol/ml
[11] = other: CYP2C19 supersomes 30 pmol/ml
[12] = other: CYP2C8 supersomes 40 pmol/ml

## COc1ccc(Cl)cc1C(=O)NCCc1ccc(S(=O)(=O)NC(=O)N[C@H]2CCC[C@@H](O)C2)cc1 (relative stereo) [M2b, 3-cis-hydroxycyclohexyl glyburide (axial)]
[1]
  pharmacological activity: pharmacologically active
Human liver microsomes [2]
  peak area of metabolite as % of that of M5: ~43%

## COc1ccc(Cl)cc1C(=O)NCCc1ccc(S(=O)(=O)NC(=O)N[C@@H]2CCCC[C@H]2O)cc1 (relative stereo) [M4, 2-trans-hydroxycyclohexyl glyburide]
Human liver microsomes [2]
  peak area of metabolite as % of that of M5: ~8%

## COc1ccc(Cl)cc1C(=O)NCCc1ccc(S(=O)(=O)NC(=O)N[C@H]2CC[C@H](O)CC2)cc1 [M1, 4-trans-hydroxycyclohexyl glyburide]
[1]
  pharmacological activity: pharmacologically active
Human liver microsomes [2]
  peak area of metabolite as % of that of M5: approximately 56%

## COc1ccc(Cl)cc1C(=O)NCCc1ccc(S(=O)(=O)NC(=O)NC2CCCC(O)C2)cc1 (stereo not drawn) [M3, 3-trans-hydroxycyclohexyl glyburide]
Human liver microsomes [2]
  peak area of metabolite as % of that of M5: ~16%

## Nc1ccc(S(=O)(=O)Nc2ccnn2-c2ccccc2)cc1 [Sulfaphenazole, sulfaphenazole]
Human liver microsomes [3]
  effect on the formation of any of the four metabolites (M1, M2b, M4, M5): no significant effects

## COc1ccc(Cl)cc1C(=O)NCCc1ccc(S(=O)(=O)NC(=O)NC2CCCCC2)cc1 [glyburide, Glyburide]
[4]; after a single oral dose of 20 mg GLB
  peak plasma concentration: approximately 1.25 μM
[4]; [7]
  free therapeutic plasma concentration: approximately 1.25 nM
  total therapeutic plasma concentration: ~0.125 µM
[5]
  Km: 5 to 11 µM

## CC(=O)N1CCN(c2ccc(OCC3COC(Cn4ccnc4)(c4ccc(Cl)cc4Cl)O3)cc2)CC1 (stereo not drawn) [ketoconazole]
CYP3A
  Ki: […]
Human liver microsomes [3]; [8]
  formation of M1, % of the controls: approximately 60%
  formation of M4, % of the controls: ~5%
  formation of M5, % of the controls: ~4%

## CC(C)(O)c1ccccc1CC[C@@H](SCC1(CC(=O)O)CC1)c1cccc(/C=C/c2ccc3ccc(Cl)cc3n2)c1 [montelukast]
Human liver microsomes [3]; [9]
  formation of M1, % of the controls: approximately 50%
  formation of M4, % of the controls: ~65%

## COc1ccc2[nH]c([S+]([O-])Cc3ncc(C)c(OC)c3C)nc2c1 (stereo not drawn) [omeprazole]
CYP2C19
  Ki: 3000 nM

## C=C[C@H]1C[N@@]2CC[C@H]1C[C@@H]2[C@@H](O)c1ccnc2ccc(OC)cc12 [quinidine]
Human liver microsomes [3]
  effect on the formation of any of the four metabolites (M1, M2b, M4, M5): no significant effects

## S=P(N1CC1)(N1CC1)N1CC1 [thioTEPA, triethylenethiophosphoramide]
Human liver microsomes [3]
  effect on the formation of any of the four metabolites (M1, M2b, M4, M5): no significant effects

## an ethyl hydroxycyclohexyl glyburide [M5]
Human liver microsomes [2]
  relative metabolite formation in human liver microsome incubations: major metabolite formed

B1: human CYP3A5 (Homo sapiens) (protein)
chain: MDLIPNLAVETWLLLAVSLVLLYLYGTRTHGLFKRLGIPGPTPLPLLGNVLSYRQGLWKFDTECYKKYGKMWGTYEGQLPVLAITDPDVIRTVLVKECYSVFTNRRSLGPVGFMKSAISLAEDEEWKRIRSLLSPTFTSGKLKEMFPIIAQYGDVLVRNLRREAEKGKPVTLKDIFGAYSMDVITGTSFGVNIDSLNNPQDPFVESTKKFLKFGFLDPLFLSIILFPFLTPVFEALNVSLFPKDTINFLSKSVNRMKKSRLNDKQKHRLDFLQLMIDSQNSKETESHKALSDLELAAQSIIFIFAGYETTSSVLSFTLYELATHPDVQQKLQKEIDAVLPNKAPPTYDAVVQMEYLDMVVNETLRLFPVAIRLERTCKKDVEINGVFIPKGSMVVIPTYALHHDPKYWTEPEEFRPERFSKKKDSIDPYIYTPFGTGPRNCIGMRFALMNMKLALIRVLQNFSFKPCKETQIPLKLDTQGLLQPEKPIVLKVDSRDGTLSGE
[6]; [10]
  Km: 4.2 ± 1.5 µM
  kcat: 0.0317 ± 0.0122 s⁻¹
  kcat/Km: 7670 ± 833 M⁻¹ s⁻¹

B2: human CYP2C19 (Homo sapiens) (protein)
chain: MDPFVVLVLCLSCLLLLSIWRQSSGRGKLPPGPTPLPVIGNILQIDIKDVSKSLTNLSKIYGPVFTLYFGLERMVVLHGYEVVKEALIDLGEEFSGRGHFPLAERANRGFGIVFSNGKRWKEIRRFSLMTLRNFGMGKRSIEDRVQEEARCLVEELRKTKASPCDPTFILGCAPCNVICSIIFQKRFDYKDQQFLNLMEKLNENIRIVSTPWIQICNNFPTIIDYFPGTHNKLLKNLAFMESDILEKVKEHQESMDINNPRDFIDCFLIKMEKEKQNQQSEFTIENLVITAADLLGAGTETTSTTLRYALLLLLKHPEVTAKVQEEIERVIGRNRSPCMQDRGHMPYTDAVVHEVQRYIDLIPTSLPHAVTCDVKFRNYLIPKGTTILTSLTSVLHDNKEFPNPEMFDPRHFLDEGGNFKKSNYFMPFSAGKRICVGEGLARMELFLFLTFILQNFNLKSLIDPKDLDTTPVVNGFASVPPFYQLCFIPV
[6]; [11]
  Km: 15.1 ± 2.3 µM
  kcat: 0.16 ± 0.025 s⁻¹
  kcat/Km: 10500 ± 333 M⁻¹ s⁻¹

B3: human CYP2C8 (Homo sapiens) (protein)
chain: MEPFVVLVLCLSFMLLFSLWRQSCRRRKLPPGPTPLPIIGNMLQIDVKDICKSFTNFSKVYGPVFTVYFGMNPIVVFHGYEAVKEALIDNGEEFSGRGNSPISQRITKGLGIISSNGKRWKEIRRFSLTTLRNFGMGKRSIEDRVQEEAHCLVEELRKTKASPCDPTFILGCAPCNVICSVVFQKRFDYKDQNFLTLMKRFNENFRILNSPWIQVCNNFPLLIDCFPGTHNKVLKNVALTRSYIREKVKEHQASLDVNNPRDFIDCFLIKMEQEKDNQKSEFNIENLVGTVADLFVAGTETTSTTLRYGLLLLLKHPEVTAKVQEEIDHVIGRHRSPCMQDRSHMPYTDAVVHEIQRYSDLVPTGVPHAVTTDTKFRNYLIPKGTTIMALLTSVLHDDKEFPNPNIFDPGHFLDKNGNFKKSDYFMPFSAGKRICAGEGLARMELFLFLTTILQNFNLKSVDDLKNLNTTAVTKGIVSLPPSYQICFIPV
[6]; [12]
  Km: 7.7 ± 2.3 µM
  kcat: 0.0417 ± 0.0133 s⁻¹
  kcat/Km: 5330 ± 500 M⁻¹ s⁻¹
